Measured values as given in article PMC11802874, “The hypolipidemic effect of MI-883, the combined CAR agonist/ PXR antagonist, in diet-induced hypercholesterolemia model” (Nature Communications, 2025).
Values joined by “and” are separate entries in the source; they are usually repeats but may differ in a detail not shown here. Equal entries are not always repeated.

Legend:
human PXR = target: T1, human PXR (Homo sapiens, UniProt O75469); test: PXR-dependent CYP3A4 reporter gene assay in H-P cells; assay type: cell-based; parameters: expressed in transfected cells; host or cells: H-P cells (HepG2 stably transfected with pcDhPXR)
T1 sequence (O75469 1-434): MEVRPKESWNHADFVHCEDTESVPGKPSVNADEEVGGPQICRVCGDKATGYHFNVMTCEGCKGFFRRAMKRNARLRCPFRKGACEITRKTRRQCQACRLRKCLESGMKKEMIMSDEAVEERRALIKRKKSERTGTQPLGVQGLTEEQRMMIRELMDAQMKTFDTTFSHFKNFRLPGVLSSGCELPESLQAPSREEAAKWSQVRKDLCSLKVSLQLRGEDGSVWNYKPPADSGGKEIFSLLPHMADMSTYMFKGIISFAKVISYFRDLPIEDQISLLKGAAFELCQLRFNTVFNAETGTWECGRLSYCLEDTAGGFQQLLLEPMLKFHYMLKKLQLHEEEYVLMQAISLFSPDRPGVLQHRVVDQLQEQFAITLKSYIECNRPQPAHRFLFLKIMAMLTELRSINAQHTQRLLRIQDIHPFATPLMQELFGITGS
Experimental: Luciferase reporter gene assays in PXR expressing H-P cells and mammalian two-hybrid reporter assays have been performed as described before[55],[57].
We also analyzed PXR-dependent CYP3A4 reporter gene assays in H-P cells, which represent HepG2 cells stably over-expressing human PXR, due to transfection of PXR expression plasmid pcDhPXR^5. […] 0.01 µg Metridia luciferase expression plasmid pMetLuc2control per well was included.

human CAR variant 3 = target: T2, human CAR variant 3 (Homo sapiens, UniProt Q14994, DEL233-236); test: CAR3 luciferase reporter assay (CYP2B6-luc) in HepG2 cells; assay type: cell-based
T2 construct: host or cells: HepG2
T2 sequence (Q14994 with tags, fused parts or gaps isoform Q14994-8 DEL233-236): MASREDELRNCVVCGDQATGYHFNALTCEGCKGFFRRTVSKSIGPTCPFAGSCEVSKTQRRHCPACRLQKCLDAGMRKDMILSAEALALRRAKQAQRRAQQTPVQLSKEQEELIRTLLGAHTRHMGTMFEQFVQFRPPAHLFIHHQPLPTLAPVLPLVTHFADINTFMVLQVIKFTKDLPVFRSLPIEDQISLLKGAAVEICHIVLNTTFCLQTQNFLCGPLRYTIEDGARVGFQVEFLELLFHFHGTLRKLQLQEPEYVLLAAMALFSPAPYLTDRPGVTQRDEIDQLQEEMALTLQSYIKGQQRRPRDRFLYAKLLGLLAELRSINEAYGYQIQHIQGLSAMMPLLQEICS
T2 sequence (P19793 1-462 partner): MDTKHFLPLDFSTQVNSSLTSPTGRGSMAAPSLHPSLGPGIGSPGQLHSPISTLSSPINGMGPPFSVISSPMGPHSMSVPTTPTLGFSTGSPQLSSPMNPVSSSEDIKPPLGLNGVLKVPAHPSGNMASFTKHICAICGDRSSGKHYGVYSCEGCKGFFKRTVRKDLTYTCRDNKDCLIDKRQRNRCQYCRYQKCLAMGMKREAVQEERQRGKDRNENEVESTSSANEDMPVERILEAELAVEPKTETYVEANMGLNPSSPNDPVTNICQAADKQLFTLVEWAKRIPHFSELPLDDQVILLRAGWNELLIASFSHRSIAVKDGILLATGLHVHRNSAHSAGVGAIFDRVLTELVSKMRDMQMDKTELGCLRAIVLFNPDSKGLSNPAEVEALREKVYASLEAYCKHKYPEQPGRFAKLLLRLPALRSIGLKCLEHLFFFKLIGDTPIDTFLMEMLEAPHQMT
Experimental: CAR3 luciferase reporter assay (with CYP2B6-luc) was performed in human hepatocellular carcinoma HepG2 cells as we described[19] For the CAR3 assay (Fig. 1d), a CYP2B6-luc reporter plasmid (originally entitled B-1.6k/PB/XREM) was kindly donated by Dr. Hongbing Wang (University of Maryland School of Pharmacy, Baltimore, MD, USA). All expression vectors are described in Supplementary, Chapter 4).
Cells were treated for 24 h with MI-883 in a range of concentration from 0.1 nM to 30 µM (n = 3). The half maximal effective concentration (EC50) to activate CAR or inhibit PXR (IC50) in the assays was calculated from at least eight points of the dose-response curves using the GraphPad Prism software.

Compound: NC(=O)c1cc(Cn2cc(-c3c(-c4ccc(Cl)cc4)nc4cc(F)ccn34)nn2)ccc1Cl [MI-883, 2-chloro-5-((4-(2-(4-chlorophenyl)-7-fluoroimidazo[1,2-a]pyridin-3-yl)-1H-1,2,3-triazol-1-yl)methyl)benzamide]
- PXR-dependent CYP3A4 reporter activity in H-P cells, replicates (human PXR; 5 MI883 (µM not given), DMSO ~1): 0.825 and 0.683 and 0.491
- PXR-dependent CYP3A4 reporter activity in H-P cells, replicates (human PXR; 30 MI883): 0.49 and 0.788 and 0.597
- PXR-dependent CYP3A4 reporter activity in H-P cells, replicates (human PXR; RIF + 5 MI883): 10.8 and 10.1 and 9.53
- PXR-dependent CYP3A4 reporter activity in H-P cells, replicates (human PXR; RIF + 10 MI883): 5.74 and 6.79 and 5.06
- PXR-dependent CYP3A4 reporter activity in H-P cells, replicates (human PXR; RIF + 30 MI883): 1.18 and 2.43 and 2.32
- PXR-dependent CYP3A4 reporter activity in H-P cells, replicates (human PXR; single agent: RIF (10 µM), 10 MI883): 0.606 and 0.813 and 0.535
- CAR3 variant activation (Fig. 1d), replicates (human CAR variant 3; concentration 0.01 (unit not given), HepG2, 24 h): 1
- CAR3 variant activation (Fig. 1d), replicates (human CAR variant 3; concentration 0.1 (unit not given)): 1.35 and 1.4 and 2.3
- CAR3 variant activation (Fig. 1d), replicates (human CAR variant 3; concentration 1 (unit not given)): 4.55 and 1.6 and 1.1
- CAR3 variant activation (Fig. 1d), replicates (human CAR variant 3; concentration 10 (unit not given)): 4.3 and 13.5 and 6.2
- CAR3 variant activation (Fig. 1d), replicates (human CAR variant 3; concentration 30 (unit not given)): 10.05 and 10.1 and 9.78
